Source: patent publication US7977384B1, “Anticancer tobacco cembranoids” (The University of Louisiana at Monroe, priority 2007, dated 2011)
Where two headings read alike, the source gives them in different places. One block for each molecule: values may come before it. Ends that are not written are not given here.

Assays:
[1] = tested on: highly malignant +SA mouse mammary epithelial cell line; test: Antiproliferative MTT assay on +SA mammary epithelial cells; format: cell-based; settings: for IC50: 4-day culture, MTT
Experimental: The antiproliferative effects of semisynthetic derivatives were tested in culture on the highly malignant +SA mouse mammary epithelial cell line maintained on serum-free media and containing 10 ng/mL EGF and 10 μg/mL insulin as mitogens. […] After a 4-day culture period, viable +SA cell number was determined by the 3-(4,5-dimethylthi-azol-2yl)-2,5-diphenyl tetrazolium bromide (MTT) colorimetric assay.

PC-3M cells [2] = test: […] invasion assay; format: cell-based, human
Experimental: Invasion assays were conducted in 24-well, two compartmented, invasion chambers sold under the trademark “[sequence]” and available from Becton Dickinson, Bedford, Mass. Exponentially growing prostate cancer cell line was serum-starved for 24 hours with basal RPMI medium containing no serum or growth factors (but containing 0.1% BSA, 10 mM HEPES, 4 mM L-glutamine, 100 IU/mL penicillin G and 100 mg/mL streptomycin). The cells were then harvested and seeded at a density of 25×10^3 cells/well in the upper insert of the [sequence] invasion chamber. The lower chamber received the chemo-attractant medium, which consisted of 90% basal RPMI medium and 10% conditioned medium from the cultures of PC-3M cells expressing active Gas protein. The incubations were carried out for 24 hours, after which the [sequence] […] The number of cells migrated on the outer bottom side of the insert was counted under the microscope in six or more randomly selected fields (magnification: 100×). The final results were expressed as mean +/− SEM per 100× field. […]
To correct this probability, the growth rate of PC-3M cells was determined under identical culture conditions. […] Mean percent increase in the cell number was determined at the end of the incubation period by counting the net increase in the number of cells. […]

PC-3M cells [3] = test: MTT proliferation assay, prostate cell line PC-3M; format: cell-based, human; settings: 50 nM dose
Experimental: Proliferation of PC-3M MTT Assays. The growth of prostate cell line PC-3M was measured by 3-(4,5-dimethylthi-azol-2yl)-2,5-diphenyl tetrazolium bromide (MTT) assay. Exponentially growing cells were plated in a 96-well plate at a density of 8×10^3 cells per well and allowed to attach for 24 hours. Complete growth medium was replaced with 100 μl of RPMI serum-free medium (GIBCO-Invitrogen, NY) and culture continued at 37° C. under 5% CO2. After 24 hours of culture, the cells were treated with MTT solution at 37° C. for 4 hours. The color reaction was stopped by the addition of solubilization/stop solution (100 μl/well), and the incubation at 37° C. continued to completely dissolve the formazan product. Absorbance of the samples was determined at 595 nm with an ELISA plate reader (Bio-Rad, Hercules, Calif.).

PC-3M cells [4] = test: Transepithelial resistance (TER), stability of junctional complexes; format: cell-based, human
Experimental: Stability of junctional complexes can be estimated by the measurement of transepithelial resistance (TER). Cells were plated at confluency and grown on six well Transwell filters (0.4 μm pore size) in complete medium. TER values were measured in duplicate wells in every 12 hours using EVOM voltohmmeter (World Precision Instruments). The TER values were normalized to the area of the monolayer filter, and calculated by subtracting the blank values from the filter and bathing medium. All cell culture media were supplemented with 25 mM Hepes, pH 7.4, and the integrity and cell density of monolayers were carefully monitored during TER measurement studies.

PC-3M cells [5] = test: Permeability assay (paracellular diffusion of dextran); format: cell-based, human; settings: CT alone
Experimental: Permeability assay (Paracellular diffusion of Dextran). Cells were plated at confluency and grown on 12 well Transwell filters in complete medium for optimum TER development. Tetramethyl-rhodamine-dextran, with an average molecular mass of 4 kDa (available from Sigma in St. Louis, Mo.) dissolved in Hanks' Balanced Salt Solution (HBSS) to a concentration of 1 mg/ml was added to the upper chamber. The lower chamber was replaced with HBSS. At various time intervals, 100 μl aliquots were collected from the lower chamber and assayed […] spectrophotometer using excitation 530 and emission 590.

PC-3M cells [6] = test: Growth rate of PC-3M cells by cell counting (correction for the invasion assay); format: cell-based, human; settings: CT 50 nM, 1-24 hours; vehicle control=1
Experimental: To correct this probability, the growth rate of PC-3M cells was determined under identical culture conditions. 25×10^3 cells were plated at hourly intervals in six-well dishes and cultured with/without CT (50 nM) for 1-24 hours. Mean percent increase in the cell number was determined at the end of the incubation period by counting the net increase in the number of cells. […] This correction was applied to the results of invasion assays.

[7] = Substrate control (tested compound in blank media without microorganisms); format: physicochemical; settings: 14 days
Text: This conclusion was based on the rapid enzymatic actetate hydrolysis by most microbial species during biocatalytic screening while compound 22 was stable for 14 days in substrate control (tested compound in blank media without microorganisms).

[8] = 15-40 μM dose, compared to vehicle controls

Molecule: CC(=O)O[C@H]1/C=C(\C)CC[C@@H]2OC(=N)S[C@@]2(C)CC[C@@H](C(C)C)/C=C/[C@@](C)(O)C1 [Compound 28, 6-O-acetyl-(1S,2E,4S,6R,7Z,11S,12S)-2,7-cembradiene-11,12-oxathiaol-21-imino-4,6-diol]
- antiproliferative activity [1]: devoid of activity

Molecule: C/C1=C\[C@H](O)C[C@@](C)(O)/C=C/[C@H](C(C)C)C[C@@H](O)/C(C)=C/CC1 [Compound 7, (1S,2E,4R,6R,7E,11E,13R)-2,7,11-cembratriene-4,6,13-triol]
- anti-invasive activity (PC-3M cells [2]; 50 nM dose): potent anti-invasive activity
- cytotoxicity (PC-3M cells [3]): without cytotoxicity

Molecule: C/C1=C/C(=O)C[C@](C)(O)/C=C/[C@H](C(C)C)CC/C(C)=C/CC1 [Compound 30, (1S,2E,4S,6R,7E,11E)-2,7,11-cembratriene-4-ol-6-one]
- antiproliferative activity [1]: potent antiproliferative agent
- antiproliferative activity [1, 8]: potent antiproliferative activity
- IC50 ([1]; Mus musculus, Epithelial cell, 96 h): 15 µM
- activity relative to parent compound 21 ([1]; at higher doses): no more active

Molecule: C/C1=C\C(=O)C[C@](C)(O)/C=C/[C@H](C(C)C)CC/C(C)=C/CC1 [Compound 29, (1S,2E,4S,7E,11E)-2,7,11-cembratriene-4-ol-6-one]
- antiproliferative activity [1]: low antiproliferative activity

Molecule: CCNC(=O)O[C@H]1/C=C(/C)CC/C=C(\C)CC[C@@H](C(C)C)/C=C/[C@](C)(O)C1 [Compound 9, 6-O-[N-(ethyl)carbamoyl](1S,2E,4R,6R,7Z,11E)-2,7,11-cembratriene-4,6-diol]
- stabilization of junctional complexes (PC-3M cells [4]; baseline and CT-stimulated TER and paracellular permeability): stabilized junctional complexes

Molecule: Calcitonin (CGNLSTCMLGTYTQDFNKFHTFPQTAIGVGAP; ends and bridges not checked; cysteine pairing not given here; UniProt P01258 85-116, looked up) [CT, reference compound]
- paracellular permeability of PC-3M cells (PC-3M cells [5]): increased
- effect on TER of PC-3M cell cultures (PC-3M cells [4]; 50 nM CT): dramatic reduction
- increase in the number of invaded cells (PC-3M cells [2]; pooled data of multiple experiments): two-fold
- relative CT-induced increase in cell number, pooled results of all time points (PC-3M cells [6]): 1.19

- stability in substrate control [7]: stable
Molecule: CC(=O)O[C@H]1/C=C(/C)CC/C=C(\C)CC[C@@H](C(C)C)/C=C/[C@@](C)(O)C1 [Compound 22, 6-O-acetyl-(1S,2E,4S,6R,7Z,11E)-2,7,11-cembratriene-4,6-diol]
- antiproliferative activity [1]: reduced activity

Molecule: CC(C)=CCC/C(C)=C/CC/C(C)=C/CC[C@]1(C)CCc2cc(O)cc(C)c2O1 [δ-tocotrienol, reference compound]
- IC50 [1]: 7 µM

Molecule: CC(=O)/C=C/C(CC/C(C)=C/CC/C(C)=C/C(C)=O)C(C)C (stereo not shown) [Compound 31, (3E,7E,12E)-11-isopropyl-4,8-dimethylpentadeca-3,7,12-triene-2,14-dione]
- antiproliferative activity [1, 8]: potent antiproliferative activity

Molecule: CC(=O)O[C@H]1/C=C(\C)CC/C=C(\C)[C@@H](O)C[C@@H](C(C)C)/C=C/[C@@](C)(O)C1 [Compound 26, (1S,2E,4S,6R,7E,11E,13S)-2,7,11-cembratriene-4,6,13-triol-6-O-acetate]
- antiproliferative activity [1]: much more active than the 13R
- IC50 [1]: 20 µM
- antiproliferative activity [1, 8]: potent antiproliferative activity

Molecule: CC(=O)O[C@H]1/C=C(\C)CC/C=C(\C)[C@H](O)C[C@@H](C(C)C)/C=C/[C@@](C)(O)C1 [Compound 25, (1S,2E,4S,6R,7E,11E,13R)-2,7,11-cembratriene-4,6,13-triol-6-O-acetate]
- IC50 [1]: 30 µM
- antiproliferative activity [1, 8]: potent antiproliferative activity
